From ChEMBL document CHEMBL3745662, “Preliminary investigation of 6,7-dihydropyrazolo[1,5-a]pyrazin-4-one derivatives as a novel series of mGlu5 receptor positive allosteric modulators with efficacy in preclinical models of schizophrenia” (Bioorg Med Chem Lett, 2016) come the findings set out here.

Holding throughout (format): functional, cell-based
The target in test [1] is T1, Metabotropic glutamate receptor 5 (Homo sapiens, UniProt P41594). The test can be described thus: Positive allosteric modulation of human mGlu5 expressed in HEK293 cells assessed as glutamate-induced calcium mobilization. On the technique in general: A change in cytosolic calcium serves as a functional read-out for many receptors and channels.
Target sequence in this assay (P41594 whole entry): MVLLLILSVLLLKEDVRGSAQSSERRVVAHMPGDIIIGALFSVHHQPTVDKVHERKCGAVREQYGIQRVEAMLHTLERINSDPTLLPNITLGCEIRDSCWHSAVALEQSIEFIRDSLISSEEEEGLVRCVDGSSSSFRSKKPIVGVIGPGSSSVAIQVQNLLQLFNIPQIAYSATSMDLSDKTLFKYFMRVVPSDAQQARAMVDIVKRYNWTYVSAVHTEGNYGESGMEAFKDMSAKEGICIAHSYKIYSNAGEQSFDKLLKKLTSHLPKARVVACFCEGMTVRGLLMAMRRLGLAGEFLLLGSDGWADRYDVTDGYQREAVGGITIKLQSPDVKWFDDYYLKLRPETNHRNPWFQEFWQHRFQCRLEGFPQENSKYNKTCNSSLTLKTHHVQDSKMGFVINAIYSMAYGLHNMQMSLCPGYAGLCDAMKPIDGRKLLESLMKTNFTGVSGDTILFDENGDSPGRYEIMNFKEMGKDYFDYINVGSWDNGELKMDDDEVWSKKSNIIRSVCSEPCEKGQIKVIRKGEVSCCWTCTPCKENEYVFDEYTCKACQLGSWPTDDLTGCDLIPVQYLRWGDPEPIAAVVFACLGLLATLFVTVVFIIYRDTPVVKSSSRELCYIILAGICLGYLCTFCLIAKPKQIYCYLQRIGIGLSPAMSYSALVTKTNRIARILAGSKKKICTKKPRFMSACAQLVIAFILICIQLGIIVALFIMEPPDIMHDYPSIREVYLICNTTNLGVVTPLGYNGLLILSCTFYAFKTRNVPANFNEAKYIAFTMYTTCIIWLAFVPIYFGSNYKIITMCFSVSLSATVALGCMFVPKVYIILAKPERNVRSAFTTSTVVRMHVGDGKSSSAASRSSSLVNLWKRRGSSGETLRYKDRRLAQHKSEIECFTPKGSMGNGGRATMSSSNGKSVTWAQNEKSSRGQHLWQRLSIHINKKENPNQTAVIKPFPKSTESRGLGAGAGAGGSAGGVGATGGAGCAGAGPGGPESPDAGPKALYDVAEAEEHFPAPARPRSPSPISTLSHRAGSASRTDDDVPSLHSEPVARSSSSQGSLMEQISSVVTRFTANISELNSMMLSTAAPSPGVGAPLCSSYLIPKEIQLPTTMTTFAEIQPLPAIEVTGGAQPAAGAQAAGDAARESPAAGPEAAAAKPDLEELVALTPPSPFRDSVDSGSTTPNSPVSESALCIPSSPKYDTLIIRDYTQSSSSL
For test [2], the target named is T1, Metabotropic glutamate receptor 5. The test can be described thus: Positive allosteric modulation of human mGlu5 expressed in HEK293 cells assessed as glutamate-induced calcium mobilization relative to glutamate.
Target sequence in this assay (P41594 21-1212 limits assumed): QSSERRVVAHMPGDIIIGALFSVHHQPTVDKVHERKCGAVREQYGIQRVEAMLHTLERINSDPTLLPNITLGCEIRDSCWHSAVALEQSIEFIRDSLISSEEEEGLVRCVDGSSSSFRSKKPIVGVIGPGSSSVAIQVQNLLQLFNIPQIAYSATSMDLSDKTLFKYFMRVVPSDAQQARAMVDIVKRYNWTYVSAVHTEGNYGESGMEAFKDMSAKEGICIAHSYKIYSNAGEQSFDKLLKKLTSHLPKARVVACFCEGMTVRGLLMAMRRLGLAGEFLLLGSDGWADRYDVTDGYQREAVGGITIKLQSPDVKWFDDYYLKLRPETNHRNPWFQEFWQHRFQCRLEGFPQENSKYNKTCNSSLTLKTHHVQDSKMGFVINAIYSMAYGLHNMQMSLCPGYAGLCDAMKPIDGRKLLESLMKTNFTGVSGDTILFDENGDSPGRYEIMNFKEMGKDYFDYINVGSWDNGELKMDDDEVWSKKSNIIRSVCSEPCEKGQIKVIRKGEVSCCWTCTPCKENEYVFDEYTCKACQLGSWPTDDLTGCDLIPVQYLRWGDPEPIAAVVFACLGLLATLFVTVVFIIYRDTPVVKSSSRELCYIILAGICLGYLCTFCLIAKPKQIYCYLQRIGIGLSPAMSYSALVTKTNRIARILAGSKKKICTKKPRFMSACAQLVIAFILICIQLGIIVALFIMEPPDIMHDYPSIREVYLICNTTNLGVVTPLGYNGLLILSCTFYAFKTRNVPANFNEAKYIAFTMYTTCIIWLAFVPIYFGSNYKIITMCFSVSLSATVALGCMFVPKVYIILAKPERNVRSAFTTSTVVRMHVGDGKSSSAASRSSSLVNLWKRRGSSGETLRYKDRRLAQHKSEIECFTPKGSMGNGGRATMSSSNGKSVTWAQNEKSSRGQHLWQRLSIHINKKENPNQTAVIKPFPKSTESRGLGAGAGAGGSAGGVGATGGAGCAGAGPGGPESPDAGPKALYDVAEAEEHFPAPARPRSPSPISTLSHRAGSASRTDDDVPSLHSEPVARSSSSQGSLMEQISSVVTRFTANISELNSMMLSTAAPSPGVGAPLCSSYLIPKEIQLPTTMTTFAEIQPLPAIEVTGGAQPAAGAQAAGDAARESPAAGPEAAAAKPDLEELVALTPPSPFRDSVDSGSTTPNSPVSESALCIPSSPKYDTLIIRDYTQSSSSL
For test [3], the target named is Metabotropic glutamate receptor 3 (Homo sapiens, UniProt Q14832). In words: Antagonist activity at human mGlu3 expressed in HEK293 cells assessed as inhibition of glutamate-induced calcium mobilization.
Metabotropic glutamate receptor 3, sequence (Q14832 whole entry): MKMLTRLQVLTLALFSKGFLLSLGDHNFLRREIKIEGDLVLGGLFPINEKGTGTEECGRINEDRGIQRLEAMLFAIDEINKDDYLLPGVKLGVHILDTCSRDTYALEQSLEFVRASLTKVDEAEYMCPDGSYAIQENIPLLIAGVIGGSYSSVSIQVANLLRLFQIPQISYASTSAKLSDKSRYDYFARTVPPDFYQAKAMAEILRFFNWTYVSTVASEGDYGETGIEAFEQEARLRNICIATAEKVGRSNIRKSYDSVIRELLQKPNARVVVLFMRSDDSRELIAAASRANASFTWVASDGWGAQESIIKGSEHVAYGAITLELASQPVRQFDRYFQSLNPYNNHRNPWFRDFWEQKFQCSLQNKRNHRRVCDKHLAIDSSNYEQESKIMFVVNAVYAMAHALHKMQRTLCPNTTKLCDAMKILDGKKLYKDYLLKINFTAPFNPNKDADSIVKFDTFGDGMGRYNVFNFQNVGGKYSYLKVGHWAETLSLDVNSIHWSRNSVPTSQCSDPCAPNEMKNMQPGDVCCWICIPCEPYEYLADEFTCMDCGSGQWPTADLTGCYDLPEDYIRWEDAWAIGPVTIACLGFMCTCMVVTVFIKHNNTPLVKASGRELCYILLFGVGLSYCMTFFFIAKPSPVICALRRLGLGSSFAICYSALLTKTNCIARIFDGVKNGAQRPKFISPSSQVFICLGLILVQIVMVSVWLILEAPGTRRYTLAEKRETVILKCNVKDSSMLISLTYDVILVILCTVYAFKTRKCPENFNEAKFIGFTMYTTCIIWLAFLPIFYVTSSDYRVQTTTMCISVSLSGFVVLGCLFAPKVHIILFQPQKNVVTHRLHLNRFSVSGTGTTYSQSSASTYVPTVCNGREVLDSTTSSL

For orientation: Emax means the maximal effect, on the per cent scale that the assay sets. As for `O=C1c2cc(COc3ccncc3)nn2CCN1c1ccc(F)cc1`, in test [1] (read-out: EC50), the EC50 is 690 nM. Besides, the maximal effect (Emax) in test [2] came to 69%.

In the case of `O=C1c2cc(COc3ccccc3)nn2CCCN1c1ccc(F)cc1`, the values for the EC50 in test [1] (read-out: EC50), in test [1] (read-out: pEC50 (converted)) and in test [3] were 220 nM, 87.1 nM and 540 nM, respectively. For the same compound, the maximum response (Emax) in test [2] was 79%.

With `O=C1c2cc(COc3ccccc3)nn2CCN1c1ncc(F)cn1`, in test [1] (read-out: EC50), the EC50 turned out to be 760 nM. Besides, the Emax in test [2] was 72%.

On to `O=C1c2cc(COc3cccc(F)c3)nn2CCN1c1ccc(F)cn1`, for which, in test [1] (read-out: EC50), the EC50 worked out at 91 nM. Also, the maximum response (Emax) in test [2] is 62%.

As for `Cc1ccc(N2CCn3nc(COc4ccccc4)cc3C2=O)cc1`, the EC50 in test [1] (read-out: EC50) is 71 nM; in test [3] it was 150 nM. In test [2], the maximal response (Emax) is 65%.

As for `O=C1c2cc(COc3ccccc3)nn2CCN1c1ccccn1`, the EC50 in test [1] (read-out: EC50) amounted to 760 nM. Moreover, the maximal response (Emax) in test [2] was 69%.

For the compound `O=C1c2cc(COc3ccccc3)nn2CCN1c1ccccc1F`, in test [1] (read-out: EC50), the EC50 came to 160 nM. In test [2], the maximal effect (Emax) is 86%.

With `O=C1c2cc(COc3ccc(F)cn3)nn2CCN1c1ccc(F)cc1`, the EC50 in test [1] (read-out: EC50) worked out at 7940 nM. Also, the Emax in test [2] came out at 52%.

For the compound `Cc1ccc(N2CCn3nc(COc4ccccc4)cc3C2=O)nc1`, the EC50 in test [1] (read-out: EC50) came to 190 nM. The maximal response (Emax) in test [2] amounted to 76%.

For the compound `O=C1c2cc(COc3ccccc3)nn2CCN1c1ccc(F)cc1`, the EC50 in test [1] (read-out: EC50) was determined as 65 nM; in test [3], 74 nM. For the same compound, in test [2], the maximal effect (Emax) is 79%.

Turning to `O=C1c2cc(COc3cccnc3)nn2CCN1c1ccc(F)cc1`, the EC50 in test [1] (read-out: EC50) was 3980 nM. The Emax in test [2] came to 69%.

In the case of `O=C1c2cc(COc3ccccc3)nn2CCN1c1cccnc1`, the EC50 in test [1] (read-out: EC50) came to 2090 nM. Besides, the Emax in test [2] is 64%.

As for `Cc1c(COc2ccccc2)nn2c1C(=O)N(c1ccc(F)cc1)CC2`, in test [1] (read-out: EC50), the EC50 was determined as 1230 nM. For the same compound, in test [2], the Emax is 32%.

Take `COc1ccc(N2CCn3nc(COc4ccccc4)cc3C2=O)nc1`: the EC50 in test [1] (read-out: EC50) was found to be 620 nM. Moreover, the maximum response (Emax) in test [2] is 74%.

For `O=C1c2cc(COc3ccccc3)nn2CCN1c1cccc(F)c1`, in test [1] (read-out: EC50), the EC50 was 130 nM. Moreover, in test [2], the maximal response (Emax) came to 81%.
